Results: patent US11185527B2, “Methods and compositions relating to steroid hormone receptor-dependent cancers” (Wayne State University, priority 2017, dated 2021)

What was measured:
[1] = test system: AR target genes in 22Rv1 CRPC cells; assay: Real time RT-PCR of AR target gene mRNAs in 22Rv1 cells; assay type: cell-based, human; conditions: 22Rv1, 10 μM, 72h
Method: FIG. 3D is a graph showing that in 22Rv1 cells were treated with 10 μM of KCI807 for 72h and real time RT-PCR was used to measure mRNAs for the indicated panel of genes tested in FIG. 3B and FIG. 3C.
Total RNA was isolated from cells using the RNeasy Mini Kit (Qiagen). Reverse transcription PCR was then performed using 500 ng of total RNA with random primers and using the high-capacity complementary DNA Archive kit (Applied Biosystems). The complementary DNA from this reaction was measured using quantitative real time PCR using the StepONE Plus Real Time PCR system (Life Technologies Corporation, Carlsbad, Calif.). All reactions were performed in triplicate and normalized to glyceraldehyde-3-phosphate-dehydrogenase values in the same samples. All primers and Taqman probes were purchased from the applied Biosystems inventory (Invitrogen)
To test the selectivity of KCI807 for ELK1-dependent gene activation by AR vs. other target genes of the receptor, 22Rv1 CRPC cells, which are dependent on both full length AR and AR-V7 for hormone-independent growth, were used. […]

[2] = Metabolite identification in serum of treated mice by LC-MS/MS; assay type: in vivo, mouse; conditions: 250 mg/kg every other day
From the text: To identify potential metabolites of KCI807 in mice, serum and liver samples collected from the control (untreated) and KCI807-treated mice were subjected to the LC-MS/MS analysis. Sample preparation and chromatographic separation were the same as that described above. Column eluents of the control and drug-treated samples were surveyed using different scan modes including full scan, product scan, and multiple reaction monitoring scan. […] The […] was operated under the optimized condition as for KCI807, and hypothesized theoretical mass transitions for potential metabolites were monitored (see Tables 3 and 4).
If a chromatographic peak monitored at the theoretical transition(s) corresponding to a particular metabolite was identified in the drug-treated samples but not in the control (untreated) samples, this metabolite was identified as a metabolite of KCI807, see FIG. 20.
Serum from mice that were injected with 250 mg/kg of 5,3′-Dihydroxyflavone every other day for two weeks was analyzed to identify potential metabolites by LCMS using hypothesized mass transitions. […]

[3] = test system: ARE-dependent promoter activation by AR; assay: Counter screening assay: ARE-luciferase reporter in recombinant HeLa cells expressing AR; assay type: cell-based, human; conditions: testosterone-treated recombinant HeLa cells
From the text: FIG. 6B is a schematic diagram of the reporter system for the counter screening assay. Recombinant HeLa cells used in this assay are identical to the primary screening cells except for the absence of Gal4-ELK1 and substitution of the Gal4 elements in the promoter with a canonical ARE. In this case, testosterone causes cytosolic AR to translocate to the nucleus and bind to the ARE in the promoter resulting in activation of the luciferase reporter.
The cells generated for counter screening, are HeLa cells stably transduced with a lentiviral plasmid construct containing a minimal promoter-luciferase reporter and an upstream androgen response element (ARE) sequence. These HeLa cells were also transduced with a lentiviral expression plasmid encoding the full-length AR. These lentiviral constructs were made as follows. Custom synthesized PCR primers were used to amplify and clone the ARE sequence from a pG5luc plasmid construct containing an ARE sequence element into the pGreenFire1 ™-mCMV-EF1-Neo (Plasmid) at SpeI (upstream) and BamHI (downstream) sites. pG5luc Vector is well known and the complete sequence has NCBI accession #AF264724. The ARE containing pG5luc plasmid is described in detail in Patki et al., 2013, J Biol Chem, 288:11047-11065. The lentiviral vector expressing ARE-luciferase reporter was then packaged in lentivirus and parental HeLa cells were infected as described below under the heading “Lentivirus-mediated-Transduction.” After 72h of infection, 400 ug/mL of Geneticin was added to the culture medium to select for the transduced cells. These cells were then infected with the lentivirus containing the full length AR expression plasmid described above. After 72h of infection, 2 ug/mL of Puromycin was added to the culture medium to select for the transduced cells. Clonal cells harboring both the ARE-promoter-luciferase reporter and also stably expressing AR were then isolated using cloning cylinders as described above. The selected clones were further expanded and then tested for luciferase induction by testosterone. The clone that gave the greatest luciferase signal to noise ratio in response to testosterone treatment was then chosen for use in the counter screening assay for high throughput small molecule screening. All of the plasmid constructs generated above were sequenced to verify DNA sequences before, the constructs were used.
For high throughput screening, recombinant primary screening cells were first depleted of hormone by growing them for 24h in medium in which the serum used was heat-inactivated and charcoal-stripped. The cells were then plated in 384-well white flat bottom plates (5,000 cells/well) (Corning Product #3570) using a Multidrop (Thermo Fisher Scientific, Waltham, Mass.). […]

| Compound | effect on mRNA of AR target genes [1] | major metabolites / compounds identified in plasma or serum [2] | major metabolites / compounds identified in plasma or serum ([2]; listed as 5,3′-Dihydroxyflavone) | inhibition of ARE-dependent promoter activation by AR (in words) [3] |
| --- | --- | --- | --- | --- |
| O=c1cc(-c2cccc(O)c2)oc2cccc(O)c12 [KCI807, 5,3′-dihydroxyflavone] | decreased expression of only the genes known to be supported synergistically by ELK1 and AR | glucuronidation and other modifications at the 3′ position | Unmetabolized compound and a single glucuronide metabolite modified at the 3′-OH position |  |
| CNC(=O)c1ccc(N2C(=S)N(c3ccc(C#N)c(C(F)(F)F)c3)C(=O)C2(C)C)cc1F [enzalutamide] |  |  |  | completely suppressed the signal |
